From ChEMBL document CHEMBL3400038, “Synthesis and evaluation of benzosuberone embedded with 1,3,4-oxadiazole, 1,3,4-thiadiazole and 1,2,4-triazole moieties as new potential anti proliferative agents” (2015)

Key:
Assay type in all cases: functional
[1] = Antiproliferative activity against human PANC1 cells after 48 hrs by SRB assay; conditions: PANC-1, 48 h
MDA-MB-231 = assay: Antiproliferative activity against human MDA-MB-231 cells after 48 hrs by SRB assay; conditions: MDA-MB-231, 48 h
HeLa = assay: Antiproliferative activity against human HeLa cells after 48 hrs by SRB assay
A549 = assay: Antiproliferative activity against human A549 cells after 48 hrs by SRB assay; conditions: A549, 48 h

Structure (SMILES) | GI50 (MDA-MB-231) | GI50 (HeLa) | GI50 (A549) | GI50 [1]
Cc1cc2c(cc1C)C(Cl)=C(c1nnc(-c3cccc(I)c3)o1)CCC2 | 2670 nM | 4460 nM | 2780 nM | 4120 nM
Cc1cc2c(cc1C)C(Cl)=C(C(=O)NNC(=S)Nc1ccccc1)CCC2 | 3140 nM | 471 nM | 759 nM | 928 nM
COc1cc2c(c(OC)c1OC)-c1ccc(OC)c(=O)cc1[C@@H](NC(C)=O)CC2 [COLCHICINE] | < 10 nM | 40 nM | 30 nM | 10 nM
COC(=O)Nc1nc2cc(C(=O)c3cccs3)ccc2[nH]1 [NOCODAZOLE] | 17 nM | 15 nM | 20 nM | < 10 nM
Cc1cc2c(cc1C)C(Cl)=C(c1nnc(-c3ccc(F)cc3)o1)CCC2 | 1400 nM | 6420 nM | 2810 nM | 520 nM
CC(=O)O[C@H]1C(=O)[C@@]2(C)[C@H]([C@H](OC(=O)c3ccccc3)[C@]3(O)C[C@H](OC(=O)[C@H](O)[C@@H](NC(=O)c4ccccc4)c4ccccc4)C(C)=C1C3(C)C)[C@]1(OC(C)=O)CO[C@@H]1C[C@@H]2O [PACLITAXEL] | < 10 nM | 20 nM | < 10 nM | 12 nM
COc1cccc2c1C(=O)c1c(O)c3c(c(O)c1C2=O)C[C@@](O)(C(=O)CO)C[C@@H]3O[C@H]1C[C@H](N)[C@H](O)[C@H](C)O1 [DOXORUBICIN] | 20 nM | < 10 nM | < 10 nM | < 10 nM
Cc1cc2c(cc1C)C(Cl)=C(c1n[nH]c(=S)o1)CCC2 | 918 nM | 4440 nM | 3270 nM | 2460 nM
Cc1cc2c(cc1C)C(Cl)=C(c1nnc(-c3cccc(Cl)c3)o1)CCC2 | 3310 nM | 5940 nM | 1970 nM | 4570 nM
Cc1cc2c(cc1C)C(Cl)=C(c1nnc(-c3cccc(C(F)(F)F)c3)o1)CCC2 | 2460 nM | 1570 nM | 1970 nM | 794 nM
COc1ccc(C[C@@H](O)c2cc(OC)c(OC)c(OC)c2)cc1O [COMBRETASTATIN] | 19 nM | 10 nM | 10 nM | 20 nM
COc1ccc([N+](=O)[O-])c(-c2nnc(C3=C(Cl)c4cc(C)c(C)cc4CCC3)o2)c1OC | 1160 nM | 310 nM | 871 nM | 957 nM
COc1cc(-c2nnc(C3=C(Cl)c4cc(C)c(C)cc4CCC3)o2)cc(OC)c1OC | 956 nM | 562 nM | 1260 nM | 1880 nM
Cc1ccc(-c2nnc(C3=C(Cl)c4cc(C)c(C)cc4CCC3)o2)cc1 | 1760 nM | 679 nM | 2470 nM | 3880 nM

Now from value to molecule, other results behind:

GI50 (MDA-MB-231) | GI50 (HeLa) | GI50 (A549) | Structure (SMILES) | GI50 [1]
4930 nM | 5500 nM | 3490 nM | Sc1nnc(C2=C(Cl)c3ccccc3CCC2)n1-c1ccccc1 | 3510 nM
5780 nM | 4920 nM | 4780 nM | Cc1cc2c(cc1C)C(Cl)=C(c1nnc(Nc3ccccc3)s1)CCC2 | 3660 nM
1010 nM | 981 nM | 4960 nM | S=c1[nH]nc(C2=C(Cl)c3ccccc3CCC2)o1 | 3430 nM
2760 nM | 4680 nM | 1960 nM | Cc1cc2c(cc1C)C(Cl)=C(c1nnc(-c3ccccc3)o1)CCC2 | 4120 nM
3280 nM | 1320 nM | 2610 nM | O=[N+]([O-])c1ccc(-c2nnc(C3=C(Cl)c4ccccc4CCC3)o2)cc1 | 3980 nM
1970 nM | 3220 nM | 2270 nM | ClC1=C(c2nnc(-c3ccccc3)o2)CCCc2ccccc21 | 675 nM
4940 nM | 4100 nM | 2560 nM | ClC1=C(c2nnc(-c3cccc(I)c3)o2)CCCc2ccccc21 | 2370 nM
2460 nM | 3870 nM | 4880 nM | O=C(NNC(=S)Nc1ccccc1)C1=C(Cl)c2ccccc2CCC1 | 5850 nM
947 nM | 1320 nM | 2350 nM | ClC1=C(c2nnc(Nc3ccccc3)s2)CCCc2ccccc21 | 158 nM
3320 nM | 1730 nM | 4570 nM | COc1cc(-c2nnc(C3=C(Cl)c4ccccc4CCC3)o2)cc(OC)c1OC | 729 nM
8280 nM | 2830 nM | 5360 nM | COc1ccc([N+](=O)[O-])c(-c2nnc(C3=C(Cl)c4ccccc4CCC3)o2)c1OC | 7230 nM
2640 nM | 1160 nM | 1490 nM | Cc1cc2c(cc1C)C(Cl)=C(c1nnc(S)n1-c1ccccc1)CCC2 | 2650 nM
1400 nM | 79 nM | 3420 nM | Cc1ccc(-c2nnc(C3=C(Cl)c4ccccc4CCC3)o2)cc1 | 6810 nM
